Reference: patent EP2965760A1, “Combination of antiretroviral agents for use in the prevention or treatment of chronic inflammatory diseases” (Université de Montpellier, priority 2014, dated 2016)
“Also recorded” adds a separate entry of the source.

Columns and labels:
SCC12B2 cell line = assay: Organotypic 3D reconstructed skin culture, cell differentiation (marker staining); format: cell-based, human; details: SCC12B2-derived 3D reconstructed skin; for effect on cell differentiation (staining for psoriasine and cytokeratin 10): 100 µM for 21 days, immunofluorescence; for effect on cell differentiation: result in words
endogenous RT activities = assay: Endogenous reverse transcriptase activity in extracts of ARV-treated 3D reconstructed skin (colorimetric Mn2+ and Mg2+ RT kit); format: cell-based, human; details: Mn2+ and Mg2+ dependent; reconstructed skin from SCC12F2, SCC12B2 and primary keratinocytes; result in words
From the text: Endogenous RT activities are increased in the psoriatic lesion when compared to non lesional psoriatic skin or normal skin extracts. […] The origin and the nature of these proteins are unknown but considering that the disease is not transmissible horizontally they should be attributed to endogenous proteins. In fact several cellular proteins including telomerase, LINE ORF2 and RT from human endogenous retroviruses (HERV) harbour a reverse transcriptase activity. LINE ORF2 is a Mg^2+-dependent RT, like RTs of the HERVs belonging to the MMTV-like group. The MLV-like HERV group harbours a Mn^2+-dependent RT. Effects of ARV on these activities was assessed in 3D culture models: Various reconstructed skin were assessed for RT inhibition through RTI treatment. They were generated from SSC12F2 and SCC12B2 cell lines and from normal primary keratinocytes (KN).
Reverse transcriptase assay : Protein extracts were prepared by crushing the cryostat skin sections (100 µm) in liquid nitrogen, incubating in ice-cold lysis buffer (10 mM Tris-HCl pH 7.5, 1 mM MgCl2, 1 mM EDTA, 0.1 mM PMSF, 5 mM β-mercaptoethanol, 0.5 % CHAPS, 10 % glycerol, 1 % NP40) and then subjected to three freeze/thaw cycles (LN2/4°C). […] RT activities were quantified with colorimetric highly sensitive Mn^2+ and Mg^2+ RT kit (Cavidi, Uppsala, Sweden) according to the manufacturer's instructions. […]

keratinocytes [1] = assay: IL-6 secretion by keratinocytes upon RT induction, time course (protocol of figure 5); format: cell-based; details: ARV after demethylating treatment; result in words
Procedure: (§1) • Figures 1A-C represent the expression of cytokeratin 10 on SCC12B2-derived 3D reconstructed skin detected by immunohistochemistry. • Figure 1A represents untreated SCC12B2-derived 3D reconstructed skin. • Figure 1B represents SCC12B2-derived 3D reconstructed skin treated by AZT (100 µM) for 21 days: • Figure 1C: represents SCC12B2-derived 3D reconstructed skin treated by efavirenz (100 µM) for 21 days. Arrow indicates cytokeratin 10 expression. • Figures 2A-D represent the expression of psoriasine on SCC12B2-derived 3D reconstructed skin detected by immunofluorescence. • Figure 2A represents untreated SCC12B2-derived 3D reconstructed skin. • Figure 2B represents SCC12B2-derived 3D reconstructed skin treated by AZT (100 µM) for 21 days: • Figure 2C represents SCC12B2-derived 3D reconstructed skin treated by Lamivudine (100 µM) for 21 days. • Figure 2D represents SCC12B2-derived 3D reconstructed skin treated by AZT (100 µM) and Lamivudine (100 µM) for 21 days. […]

keratinocytes [2] = assay: IL-6 production by keratinocytes, ARVs given concomitantly with stimulation of RT activity; format: cell-based; details: ARV concomitant with treatment that stimulated RT activity; result in words
Procedure: as §1

keratinocytes [3] = assay: Cytokine production by keratinocytes after demethylating treatment (protocol of figure 5, Day 7); format: cell-based; details: after demethylation treatment
Procedure: • Figures 1A-C represent the expression of cytokeratin 10 on SCC12B2-derived 3D reconstructed skin detected by immunohistochemistry. • Figure 1A represents untreated SCC12B2-derived 3D reconstructed skin. • Figure 1B represents SCC12B2-derived 3D reconstructed skin treated by AZT (100 µM) for 21 days: • Figure 1C: represents SCC12B2-derived 3D reconstructed skin treated by efavirenz (100 µM) for 21 days. Arrow indicates cytokeratin 10 expression. • Figures 2A-D represent the expression of psoriasine on SCC12B2-derived 3D reconstructed skin detected by immunofluorescence. • Figure 2A represents untreated SCC12B2-derived 3D reconstructed skin. • Figure 2B represents SCC12B2-derived 3D reconstructed skin treated by AZT (100 µM) for 21 days: • Figure 2C represents SCC12B2-derived 3D reconstructed skin treated by Lamivudine (100 µM) for 21 days. • Figure 2D represents SCC12B2-derived 3D reconstructed skin treated by AZT (100 µM) and Lamivudine (100 µM) for 21 days. White staining denoted psoriasine expression. • Figures 3A-D represent the expression of cytokeratin 10 on SCC12B2-derived 3D reconstructed skin detected by immunofluorescence. • Figure 3A. represents untreated SCC12B2-derived 3D reconstructed skin. • Figure 3B represents SCC12B2-derived 3D reconstructed skin treated by AZT (100 µM) for 21 days: • Figure 3C represents SCC12B2-derived 3D reconstructed skin treated by lamividune (100 µM) for 21 days; • Figure 3D represents SCC12B2-derived 3D reconstructed skin treated with a combination of AZT (100 µM) and lamivudine (100 µM). White staining denoted cytokeratin 10 expression. • Figure 4 represents a histogram showing the level of endogenous RT activity in 3D reconstructed skin from various cell lines: PC F2 (A), PC B2 (B) or PC KN (C). PC F2 were obtained from the SCC12F2 cell line; PC B2 from the SCC12B2 cell line and PC KN from primary cultured human keratinocytes. Treatment were either azidothymidine (AZT; 2.) or efavirenz (3.) compared to the control (untreated; 1.). • Figure 5 represents a fow chart of the different treatments that aim at mimicking the initiating events of the psoriatic lesions • Figure 6 represents a histogram showing the level of the indicated cytokine production by keratinocytes at Day 7 of the protocol described in figure 5. Data were normalized versus control condition (fold increase in arbitrary unit). 1: IL-17 A; 2: IFN-γ; 3: TNF-α, 4: IL-1 RA and 5: IP-10. White columns represent the expression level in control cells. Black columns represent the expression level in cells treated with deoxyuridine, Grey columns represent the expression level in cells treated with desoxyuridine and Eviplera®. Hatched columns represent the expression level in cells treated with desoxyuridine and rilpivirine. Columns with dots represent the expression level in cells treated with desoxyuridine and efavirenz. • Figure 7 represents a graph showing time course (D0: Day 0; D2: Day 2; D5: Day 5; D7: Day 7) of the level of IL-6 production (fold increase) by keratinocytes according to the protocol described in figure 5. The expression is normalized to control at the corresponding time point. Diamond shape = untreated cells; Filled square = demethylating treated cells; Open square = treated with AZT; Filled circle = treated with lamivudine; Open circle = treated with Eviplera®. • Figure 8 represents a graph showing effects of ARVs upon simultaneous stimulation of RT activities on the production of IL-6 by keratinocytes. Values are normalized versus control. Filled diamond shape = control; Filled square = treated with demethylating agent; Triangle = treated with demethylating agent + Eviplera®; open diamond shape = treated with demethylating agent + lamivudine; Open circle = treated with demethylating agent + AZT; Filled circle = treated with demethylating agent + AZT + Lamivudine. […]

| Compound | effect on cell differentiation (staining for psoriasine and cytokeratin 10) (SCC12B2 cell line) | effect on cell differentiation (SCC12B2 cell line) | endogenous RT activities (endogenous RT activities) | effect on the synthesis of IL-6 (keratinocytes [1]) | effect on the synthesis of IL-6 (keratinocytes [2]) | IFN-α expression decreased (keratinocytes [3]) | IP10 expression decreased (keratinocytes [3]) | further results |
| --- | --- | --- | --- | --- | --- | --- | --- | --- |
| Cc1cn([C@H]2C[C@H](N=[N+]=[N-])[C@@H](CO)O2)c(=O)[nH]c1=O [AZT, Zidovudine] | Neither AZT, nor lamivudine has effect | no effect; also recorded: no or minor effects | less effective | neither AZT nor lamivudine have effect | no effect | – | – | – |
| O=C1Nc2ccc(Cl)cc2[C@@](C#CC2CC2)(C(F)(F)F)O1 [Efavirenz] | – | reverses the "tumoral" phenotype of SCC12B2 cell line | decreased endogenous RT activities of both type | – | – | more than 50% | more than 50% | effect on cell differentiation (SCC12B2 cell line; listed as efavirenz): impact cell differentiation; IL17A expression (keratinocytes [3]): undetectable; TNF-α production (keratinocytes [3]): potent induction |
| Cc1cc(C#N)cc(C)c1Oc1nc(Nc2ccc(C#N)cc2)nc(N)c1Br [Etravirine] | – | no or minor effects | – | – | – | – | – | – |
| Cc1cc(/C=C/C#N)cc(C)c1Nc1ccnc(Nc2ccc(C#N)cc2)n1 [Rilpivirine] | – | – | – | – | – | more than 50% | more than 50% | – |
| C[C@H](Cn1cnc2c(N)ncnc21)OCP(=O)(O)O [Tenofovir] | – | impact cell differentiation | – | – | – | – | – | – |
| Nc1ccn([C@H]2CS[C@@H](CO)O2)c(=O)n1 [lamivudine, 2',3'-dideoxy-3'-thiacytidine] | Neither AZT, nor lamivudine has effect | – | – | neither AZT nor lamivudine have effect | no effect | – | – | – |
